Laboratory results taken from patent publication US20250262170A1, “COMBINATIONS OF BETA 2-ADRENERGIC RECEPTOR AGONISTS AND BETA 3-ADRENERGIC RECEPTOR AGONISTS, AND MEDICAL USES THEREOF” (ATROGI AB, priority 2022, published 2025).

Target: T1, human β3-adrenergic receptor (Homo sapiens, UniProt P13945)
T1 construct: expressed in transfected cells
Test: cAMP levels in CHO-K1 cells expressing the human β3-adrenergic receptor
Assay type: cell-based
Details: 15 min; for Emax at 10 µM: CHO-K1, 0.25 h, read-out: Activity (intracellular cAMP compared to that of isoproterenol)
Method: CHO-K1 cells stably expressing the human β3-adrenergic receptors were serum-starved overnight and stimulated with an agonist, final concentration 1×10^−5 M, for 15 min in stimulation buffer (HBSS supplemented with 1% BSA, 5 mM HEPES and 1 mM IBMX, pH 7.4) The medium was then aspirated and to end the reaction, 100 μL of 95% EtOH was added to each well of the 24-well plate and cells were kept at −20° C. overnight. The next day EtOH was allowed to evaporate and 250 μL of lysis buffer (1% BSA, 5 mM HEPES and 0.3% Tween-20, pH 7.4) was added to each well. The plate was kept at −80° C. for 30 min and thawed in room temperature. Intracellular cAMP levels were detected using an alpha screen cAMP kit (6760635D from Perkin Elmer). The activity for each compound is compared to that of isoproterenol.

T1 sequence (P13945 whole entry): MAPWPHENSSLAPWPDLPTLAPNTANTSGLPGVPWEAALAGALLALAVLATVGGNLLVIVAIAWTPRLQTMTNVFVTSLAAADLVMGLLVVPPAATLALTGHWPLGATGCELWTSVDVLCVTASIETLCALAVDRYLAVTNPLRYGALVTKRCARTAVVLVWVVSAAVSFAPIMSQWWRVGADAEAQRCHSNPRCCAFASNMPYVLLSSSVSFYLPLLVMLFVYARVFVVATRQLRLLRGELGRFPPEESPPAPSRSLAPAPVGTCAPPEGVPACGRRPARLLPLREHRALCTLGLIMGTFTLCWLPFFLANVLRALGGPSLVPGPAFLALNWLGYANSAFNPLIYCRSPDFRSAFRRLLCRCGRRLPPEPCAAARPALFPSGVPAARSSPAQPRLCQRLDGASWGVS

Row | Emax at 10 µM [%] | Activity (intracellular cAMP compared to that of isoproterenol) (10 μM) | SMILES
1 | > 75 | – | CC(=O)N[C@H]1CC[C@@H](C[C@@H]2CC[C@H]([C@H](O)c3cccc(F)c3F)N2)CC1 [Compound 1, N-((cis)-4-(((2S,5R)-5-((R)-(2,3-difluorophenyl)-(hydroxy)methyl)pyrrolidin-2-yl)methyl)cyclohexyl)-acetamide]
2 | 50 to 75 | – | CN(C)C(=O)N1CCC[C@@H](CC(C)(C)NC[C@H](O)c2cncc(F)c2)C1 [Compound 2, (S)-3-(2-(((R)-2-(5-fluoro-pyridin-3-yl)-2-hydroxy-ethyl)amino)-2-methyl-propyl)-N,N-dimethyl-piperidine-1-carboxamide]
3 | > 75 | – | CNC(=O)N1CCC[C@@H](CC(C)(C)NC[C@H](O)c2cccc(F)c2)C1 [Compound 3, (S)-3-(2-(((R)-2-(3-fluorophenyl)-2-hydroxy-ethyl)amino)-2-methyl-propyl)-N-methylpiperidine-1-carboxamide]
4 | > 75 | – | CN(C)C(=O)N1CCC[C@@H](CC(C)(C)NC[C@H](O)c2cccc(F)c2)C1 [Compound 4, (S)-3-(2-(((R)-2-(3-fluoro-phenyl)-2-hydroxyethyl)-amino)-2-methylpropyl)-N,N-dimethylpiperidine-1-carboxamide]
5 | > 75 | – | COC(=O)N1CCC[C@@H](CC(C)(C)NC[C@H](O)c2cccc(F)c2)C1 [Compound 5, methyl (S)-3-(2-(((R)-2-(3-fluorophenyl)-2-hydroxy-ethyl)amino)-2-methyl-propyl)piperidine-1-carboxylate]
6 | > 75 | – | CO[C@H]1CC[C@H](C[C@@H]2CC[C@H]([C@H](O)c3cccc(F)c3F)N2)CC1 [Compound 6, (R)-(2,3-difluorophenyl)-((2R,5S)-5-(((trans)-4-methoxycyclohexyl)methyl)-pyrrolidin-2-yl)methanol]
7 | 50 to 75 | – | CO[C@H]1CC[C@@H](C[C@@H]2CC[C@H]([C@H](O)c3cccc(F)c3F)N2)CC1 [Compound 7, (R)-(2,3-difluorophenyl)-((2R,5S)-5-(((cis)-4-methoxycyclohexyl)methyl)-pyrrolidin-2-yl)methanol]
8 | 50 to 75 | – | CC(C)(C[C@@H]1CCCN(C(=O)C(F)(F)F)C1)NC[C@H](O)c1cccc(F)c1 [Compound 9, 2,2,2-trifluoro-1-((S)-3-(2-(((R)-2-(3-fluorophenyl)-2-hydroxyethyl)amino)-2-methylpropyl)piperidin-1-yl)-ethan-1-one]
9 | > 75 | – | CCCS(=O)(=O)N[C@H]1CC[C@H](CC(C)(C)NC[C@H](O)c2cncc(F)c2)CC1 [Compound 10, N-((trans)-4-(2-(((R)-2-(5-fluoropyridin-3-yl)-2-hydroxyethyl)amino)-2-methylpropyl)cyclohexyl)-propane-1-sulfonamide]
10 | > 75 | – | CC(C)(C[C@H]1CC[C@H](NS(=O)(=O)C(F)(F)F)CC1)NC[C@H](O)c1cncc(F)c1 [Compound 11, 1,1,1-trifluoro-N-((1R,4r)-4-(2-(((R)-2-(5-fluoropyridin-3-yl)-2-hydroxyethyl)amino)-2-methylpropyl)cyclohexyl)-methanesulfonamide]
11 | > 75 | – | CCCCS(=O)(=O)N[C@H]1CC[C@@H](CC(C)(C)NC[C@H](O)c2cccc(F)c2)CC1 [Compound 12]
12 | > 75 | – | CCCCS(=O)(=O)N[C@H]1CC[C@H](CC(C)(C)NC[C@H](O)c2cccc(F)c2)CC1 [Compound 13]
13 | 50 to 75 | – | CC(C)CS(=O)(=O)N[C@H]1CC[C@@H](CC(C)(C)NC[C@H](O)c2cncc(F)c2)CC1 [Compound 14, N-((cis)-4-(2-(((R)-2-(5-fluoropyridin-3-yl)-2-hydroxyethyl)amino)-2-methylpropyl)cyclohexyl)-2-methylpropane-1-sulfonamide]
14 | > 75 | – | CC(C)CS(=O)(=O)N[C@H]1CC[C@@H](CC(C)(C)NC[C@H](O)c2cccc(F)c2)CC1 [Compound 16, N-((cis)-4-(2-(((R)-2-(3-fluorophenyl)-2-hydroxy-ethyl)amino)-2-methyl-propyl)cyclohexyl)-2-methyl-propane-1-sulfonamide]
15 | > 75 | – | CCS(=O)(=O)N[C@H]1CC[C@H](CC(C)(C)NC[C@H](O)c2cccc(F)c2)CC1 [Compound 17, N-((trans)-4-(2-(((R)-2-(3-fluorophenyl)-2-ethyl)amino)-2-methylpropyl)cyclohexyl)-ethanesulfonamide]
16 | – | + + | CCS(=O)(=O)N[C@H]1CC[C@@H](CC(C)(C)NC[C@H](O)c2cncc(F)c2)CC1 [Compound 18, N-((cis)-4-(2-(((R)-2-(5-fluoropyridin-3-yl)-2-hydroxyethyl)amino)-2-methylpropyl)cyclo-hexyl)ethanesulfonamide]
17 | > 75 | – | CCCCS(=O)(=O)N[C@H]1CC[C@H](CC(C)(C)NC[C@H](O)c2cncc(F)c2)CC1 [Compound 19, N-((trans)-4-(2-(((R)-2-(5-fluoropyridin-3-yl)-2-hydroxyethyl)amino)-2-methylpropyl)cyclohexyl)-butane-1-sulfonamide]
18 | > 75 | – | CC(C)CS(=O)(=O)N[C@H]1CC[C@H](CC(C)(C)NC[C@H](O)c2cncc(F)c2)CC1 [Compound 20, N-((trans)-4-(2-(((R)-2-(5-fluoropyridin-3-yl)-2-hydroxyethyl)amino)-2-methylpropyl)cyclohexyl)-2-methylpropane-1-sulfonamide]
19 | > 75 | – | CCS(=O)(=O)N[C@H]1CC[C@H](CC(C)(C)NC[C@H](O)c2cncc(F)c2)CC1 [Compound 21, N-((trans)-4-(2-(((R)-2-(5-fluoropyridin-3-yl)-2-hydroxyethyl)amino)-2-methylpropyl)cyclohexyl)-ethanesulfonamide]
20 | > 75 | – | CC(C)(C[C@H]1CC[C@H](S(N)(=O)=O)CC1)NC[C@H](O)c1cccc(F)c1 [Compound 22, (trans)-4-(2-(((R)-2-(3-fluorophenyl)-2-hydroxy-ethyl)amino)-2-methyl-propyl)cyclohexane-1-sulfonamide]
21 | > 75 | – | CC(C)(C[C@H]1CC[C@H](NS(C)(=O)=O)CC1)NC[C@H](O)c1ccc(F)c(N)c1F [Compound 23, N-((trans)-4-(2-(((R)-2-(3-amino-2,4-difluorophenyl)-2-hydroxyethyl)amino)-2-methylpropyl)cyclohexyl)-methanesulfonamide]
22 | > 75 | – | CS(=O)(=O)N[C@H]1CC[C@H](C[C@@H]2CC[C@H]([C@H](O)c3cccc(F)c3)N2)CC1 [Compound 24, N-((trans)-4-(((2S,5R)-5-((R)-(3-fluorophenyl)-(hydroxy)methyl)pyrrolidin-2-yl)methyl)cyclohexyl)-methanesulfonamide]
23 | > 75 | – | CC(C)(C[C@H]1CC[C@H](NS(=O)(=O)C2CC2)CC1)NC[C@H](O)c1cccc(F)c1 [Compound 25, N-((trans)-4-(2-(((R)-2-(3-fluorophenyl)-2-hydroxy-ethyl)amino)-2-methyl-propyl)cyclohexyl)cyclo-propanesulfonamide]
24 | > 75 | – | CNS(=O)(=O)[C@H]1CC[C@H](CC(C)(C)NC[C@H](O)c2cccc(F)c2)CC1 [Compound 27, (trans)-4-(2-(((R)-2-(3-fluorophenyl)-2-hydroxy-ethyl)amino)-2-methy-propyl)-N-methyl-cyclohexane-1-sulfonamide]

Row | SMILES | Emax at 10 µM [%] | Activity (intracellular cAMP compared to that of isoproterenol) (10 μM)
25 | COCC12CC(C1)[C@H]([C@H](O)c1cccc(F)c1)N2 [Compound 29, (R)-(3-fluorophenyl)((R)-1-(methoxymethyl)-2-aza-bicyclo[2.1.1]hexan-3-yl)-methanol] | 50 to 75 | –
